Measured values from patent publication US20250026724A1, “(1,4,5-TRISUBSTITUTED 1H-PYRAZOL-3-YL)OXY-2-ALKYLTHIOALKYL ACIDS AND -ALKYL ACID DERIVATIVES, SALTS THEREOF AND USE THEREOF AS ACTIVE HERBICIDAL INGREDIENTS” (BAYER AKTIENGESELLSCHAFT, priority 2021, published 2025).

Test system: Setaria viridis (SETVI)
Experiment: Post-emergence herbicidal action, greenhouse pot trial
Assay type: in vivo
Details: Setaria viridis, 504 h, 320 g/ha, visual rating after about 3 weeks, read-out: Post-emergence effect at 320 g/ha against SETVI in %
Method: (§1) Seeds of monocotyledonous and dicotyledonous weeds and crop plants are placed in sandy loam in plastic or organic planting pots, covered with soil and cultivated in a greenhouse under controlled growth conditions. 2 to 3 weeks after sowing, the trial plants are treated at the one-leaf stage. The compounds of the invention, formulated in the form of wettable powders (WP) or as emulsion concentrates (EC), are then sprayed onto the green parts of the plants as aqueous suspension or emulsion with addition of 0.5% additive at a water application rate equivalent to 600 l/ha. After about 3 weeks of keeping the trial plants in the greenhouse under optimum growth conditions, the effect of the preparations is rated visually in comparison to untreated controls. For example, 100% activity=the plants have died, 0% activity=like control plants.
(§2) Tables B1 to B14 below show the effects of selected compounds of the general formula (I) according to Table 1 on various harmful plants and at an application rate corresponding to 320 g/ha or lower, which were obtained by the trial procedure specified above. The appendices “a”, “b” and “c” give differentiation by dosage used with otherwise the same harmful plants tested.
(§3) As shown by results from Tables B1 to B19, inventive compounds of the general formula (I) in the case of post-emergence treatment have good herbicidal efficacy against harmful plants, for example Abutilon theophrasti (ABUTH), Alopecurus myosuroides (ALOMY), Amaranthus retroflexus (AMARE), Avena fatua (AVEFA), Digitaria sanguinalis (DIGSA), Echinochloa crus-galli (ECHCG), Bassia scoparia (KCHSC), Lolium rigidum (LOLRI), Matricaria inodora (MATIN), Pharbitis purpurea (PHBPU), Polygonum convolvulus (POLCO), Setaria viridis (SETVI), Veronica persica (VERPE) and Viola tricolor (VIOTR) at an application rate of 320 g of active substance or less per hectare, and good crop plant compatibility in the case of organisms such as Oryza sativa (ORYSA), Zea mays (ZEAMX), Brassica napus (BRSNW), Glycine max (GLXMA) and Triticum aestivum (TRZAS) at an application rate of 320 g or less per hectare.

Row | Compound | pest or weed control at 320 g/ha [%]
1 | CSC(Oc1nn(-c2ncccc2F)c(-c2ccc(F)nc2)c1Cl)C(=O)O (stereo not drawn) [Example I-31] | 80
2 | CSC(Oc1nn(-c2ncccc2F)c(-c2ccc(F)nc2)c1Br)C(=O)O (stereo not drawn) [Example I-34] | 90

Test system: Bassia scoparia (KCHSC)
Experiment: as above
Assay type: in vivo
Details: Bassia scoparia, 504 h, 320 g/ha, read-out: Post-emergence effect against KCHSC
Method: as §1, §2, §3

Row | Compound | pest or weed control at 320 g/ha [%]
3 | CSC(Oc1nn(-c2ncccc2F)c(-c2ccc(F)nc2)c1Br)C(=O)O (stereo not drawn) [Example I-34] | 80
4 | CSC(Oc1nn(-c2cnccn2)c(-c2ccc(F)nc2)c1Br)C(=O)O (stereo not drawn) [Example I-36] | 90
5 | CSC(Oc1nn(-c2cnccn2)c(-c2ccc(F)nc2)c1Cl)C(=O)O (stereo not drawn) [Example I-37] | 90

Test system: Alopecurus myosuroides (ALOMY)
Experiment: as above
Assay type: in vivo
Details: Alopecurus myosuroides, 504 h, 320 g/ha, visual rating after about 3 weeks, read-out: Post-emergence effect at 320 g/ha against ALOMY in %
Method: as §1, §2, §3

Row | Compound | pest or weed control at 320 g/ha [%]
6 | CCOC(=O)C(Oc1nn(-c2cnccn2)c(-c2ccc(F)nc2)c1Cl)SC (stereo not drawn) [Example I-16] | 80
7 | CSC(Oc1nn(-c2ncccc2F)c(-c2ccc(F)nc2)c1Cl)C(=O)O (stereo not drawn) [Example I-31] | 80
8 | CSC(Oc1nn(-c2cnccn2)c(-c2ccc(F)nc2)c1Br)C(=O)O (stereo not drawn) [Example I-36] | 90
9 | CSC(Oc1nn(-c2cnccn2)c(-c2ccc(F)nc2)c1Cl)C(=O)O (stereo not drawn) [Example I-37] | 90

Test system: Lolium rigidum (LOLRI)
Experiment: as above
Assay type: in vivo
Details: Lolium rigidum, 504 h, 320 g/ha, visual rating after about 3 weeks, read-out: Post-emergence effect at 320 g/ha against LOLRI in %
Method: as §1, §2, §3

Row | Compound | pest or weed control at 320 g/ha [%]
10 | COC(=O)C(Oc1nn(-c2ncccc2F)c(-c2ccc(F)nc2)c1C1CC1)SC (stereo not drawn) [Example I-59] | 90

Test system: Echinochloa crus-galli (ECHCG)
Experiment: as above
Assay type: in vivo
Details: Echinochloa crus-galli, 504 h, 80 g/ha, visual rating after about 3 weeks, read-out: Post-emergence effect at 80 g/ha against ECHCG in %
Method: as §1, §2, §3

Row | Compound | pest or weed control at 80 g/ha [%]
11 | CSC(Oc1nn(-c2ncccc2F)c(-c2ccc(F)nc2)c1Cl)C(=O)O (stereo not drawn) [Example I-31] | 80
12 | CSC(Oc1nn(-c2ncccc2F)c(-c2ccc(F)nc2)c1Br)C(=O)O (stereo not drawn) [Example I-34] | 80

Same assay, conditions: Echinochloa crus-galli, 504 h, 320 g/ha, visual rating after about 3 weeks, read-out: Post-emergence effect at 320 g/ha against ECHCG in %

Row | Compound | pest or weed control at 320 g/ha [%]
13 | CCOC(=O)C(Oc1nn(-c2cnccn2)c(-c2ccc(F)nc2)c1Cl)SC (stereo not drawn) [Example I-16] | 80
14 | CSC(Oc1nn(-c2ncccc2F)c(-c2ccc(F)nc2)c1Cl)C(=O)O (stereo not drawn) [Example I-31] | 90
15 | CSC(Oc1nn(-c2ncccc2F)c(-c2ccc(F)nc2)c1C1CC1)C(=O)O (stereo not drawn) [Example I-33] | 80
16 | CSC(Oc1nn(-c2ncccc2F)c(-c2ccc(F)nc2)c1Br)C(=O)O (stereo not drawn) [Example I-34] | 90
17 | COC(=O)C(Oc1nn(-c2ncccc2F)c(-c2ccc(F)nc2)c1C1CC1)SC (stereo not drawn) [Example I-59] | 90

Test system: Pharbitis purpurea (PHBPU)
Experiment: as above
Assay type: in vivo
Details: Ipomoea purpurea, 504 h, 80 g/ha, visual rating after about 3 weeks, read-out: Post-emergence effect at 80 g/ha against PHBPU in %
Method: as §1, §2, §3

Row | Compound | pest or weed control at 80 g/ha [%]
18 | CSC(Oc1nn(-c2ncccc2F)c(-c2ccc(F)nc2)c1Br)C(=O)O (stereo not drawn) [Example I-34] | 80
19 | COC(=O)C(Oc1nn(-c2ncccc2F)c(-c2ccc(F)nc2)c1C1CC1)SC (stereo not drawn) [Example I-59] | 90

Same assay, conditions: Ipomoea purpurea, 504 h, 320 g/ha, visual rating after about 3 weeks, read-out: Post-emergence effect at 320 g/ha against PHBPU in %

Row | Compound | pest or weed control at 320 g/ha [%]
20 | CCOC(=O)C(Oc1nn(-c2cnccn2)c(-c2ccc(F)nc2)c1Cl)SC (stereo not drawn) [Example I-16] | 80
21 | CSC(Oc1nn(-c2ncccc2F)c(-c2ccc(F)nc2)c1Cl)C(=O)O (stereo not drawn) [Example I-31] | 80
22 | CSC(Oc1nn(-c2ncccc2F)c(-c2ccc(F)nc2)c1Br)C(=O)O (stereo not drawn) [Example I-34] | 90
23 | CSC(Oc1nn(-c2cnccn2)c(-c2ccc(F)nc2)c1Br)C(=O)O (stereo not drawn) [Example I-36] | 90
24 | CSC(Oc1nn(-c2cnccn2)c(-c2ccc(F)nc2)c1Cl)C(=O)O (stereo not drawn) [Example I-37] | 90
25 | COC(=O)C(Oc1nn(-c2ncccc2F)c(-c2ccc(F)nc2)c1C1CC1)SC (stereo not drawn) [Example I-59] | 90

Test system: Amaranthus retroflexus (AMARE)
Experiment: as above
Assay type: in vivo
Details: Amaranthus retroflexus, 504 h, 320 g/ha, visual rating after about 3 weeks, read-out: Post-emergence effect at 320 g/ha against AMARE in %
Method: as §1, §2, §3

Row | Compound | pest or weed control at 320 g/ha [%]
26 | CSC(Oc1nn(-c2ncccc2F)c(-c2ccc(F)nc2)c1Cl)C(=O)O (stereo not drawn) [Example I-31] | 80
27 | CSC(Oc1nn(-c2ncccc2F)c(-c2ccc(F)nc2)c1Br)C(=O)O (stereo not drawn) [Example I-34] | 80

Test system: Abutilon theophrasti (ABUTH)
Experiment: as above
Assay type: in vivo
Details: Abutilon theophrasti, 504 h, 80 g/ha, visual rating after about 3 weeks, read-out: Post-emergence effect at 80 g/ha against ABUTH in %
Method: as §1, §2, §3

Row | Compound | pest or weed control at 80 g/ha [%]
28 | COC(=O)C(Oc1nn(-c2ncccc2F)c(-c2ccc(F)nc2)c1C1CC1)SC (stereo not drawn) [Example I-59] | 80

Same assay, conditions: Abutilon theophrasti, 504 h, 320 g/ha, visual rating after about 3 weeks, read-out: Post-emergence effect at 320 g/ha against ABUTH in %

Row | Compound | pest or weed control at 320 g/ha [%]
29 | CSC(Oc1nn(-c2ncccc2F)c(-c2ccc(F)nc2)c1Br)C(=O)O (stereo not drawn) [Example I-34] | 90
30 | CSC(Oc1nn(-c2cnccn2)c(-c2ccc(F)nc2)c1Br)C(=O)O (stereo not drawn) [Example I-36] | 80
31 | CSC(Oc1nn(-c2cnccn2)c(-c2ccc(F)nc2)c1Cl)C(=O)O (stereo not drawn) [Example I-37] | 80
32 | COC(=O)C(Oc1nn(-c2ncccc2F)c(-c2ccc(F)nc2)c1C1CC1)SC (stereo not drawn) [Example I-59] | 90

Test system: Polygonum convolvulus (POLCO)
Experiment: as above
Assay type: in vivo
Details: Fallopia convolvulus, 504 h, 320 g/ha, visual rating after about 3 weeks, read-out: Post-emergence effect at 320 g/ha against POLCO in %
Method: as §1, §2, §3

Row | Compound | pest or weed control at 320 g/ha [%]
33 | CCOC(=O)C(Oc1nn(-c2cnccn2)c(-c2ccc(F)nc2)c1Cl)SC (stereo not drawn) [Example I-16] | 80
34 | CSC(Oc1nn(-c2ncccc2F)c(-c2ccc(F)nc2)c1Cl)C(=O)O (stereo not drawn) [Example I-31] | 80
35 | CSC(Oc1nn(-c2ncccc2F)c(-c2ccc(F)nc2)c1Br)C(=O)O (stereo not drawn) [Example I-34] | 90
36 | CSC(Oc1nn(-c2cnccn2)c(-c2ccc(F)nc2)c1Br)C(=O)O (stereo not drawn) [Example I-36] | 90
37 | CSC(Oc1nn(-c2cnccn2)c(-c2ccc(F)nc2)c1Cl)C(=O)O (stereo not drawn) [Example I-37] | 90

Test system: Avena fatua (AVEFA)
Experiment: as above
Assay type: in vivo
Details: Avena fatua, 504 h, 320 g/ha, visual rating after about 3 weeks, read-out: Post-emergence effect at 320 g/ha against AVEFA in %
Method: as §1, §2, §3

Row | Compound | pest or weed control at 320 g/ha [%]
38 | CSC(Oc1nn(-c2ncccc2F)c(-c2ccc(F)nc2)c1Cl)C(=O)O (stereo not drawn) [Example I-31] | 80
39 | CSC(Oc1nn(-c2ncccc2F)c(-c2ccc(F)nc2)c1C1CC1)C(=O)O (stereo not drawn) [Example I-33] | 80
40 | COC(=O)C(Oc1nn(-c2ncccc2F)c(-c2ccc(F)nc2)c1C1CC1)SC (stereo not drawn) [Example I-59] | 90

Test system: Digitaria sanguinalis (DIGSA)
Experiment: as above
Assay type: in vivo
Details: 80 g/ha, visual rating after about 3 weeks
Method: as §1, §2, §3

Row | Compound | Post-emergence effect at 80 g/ha against DIGSA in % [%]
41 | CSC(Oc1nn(-c2ncccc2F)c(-c2ccc(F)nc2)c1Br)C(=O)O (stereo not drawn) [Example I-34] | 80

Same assay, conditions: Digitaria sanguinalis, 504 h, 320 g/ha, visual rating after about 3 weeks, read-out: Post-emergence effect at 320 g/ha against DIGSA in %

Row | Compound | pest or weed control at 320 g/ha [%]
42 | CSC(Oc1nn(-c2ncccc2F)c(-c2ccc(F)nc2)c1Cl)C(=O)O (stereo not drawn) [Example I-31] | 80
43 | CSC(Oc1nn(-c2ncccc2F)c(-c2ccc(F)nc2)c1Br)C(=O)O (stereo not drawn) [Example I-34] | 90

Test system: Matricaria inodora (MATIN)
Experiment: as above
Assay type: in vivo
Details: Tripleurospermum inodorum, 504 h, 320 g/ha, visual rating after about 3 weeks, read-out: Post-emergence effect at 320 g/ha against MATIN in %
Method: as §1, §2, §3

Row | Compound | pest or weed control at 320 g/ha [%]
44 | CSC(Oc1nn(-c2ncccc2F)c(-c2ccc(F)nc2)c1Cl)C(=O)O (stereo not drawn) [Example I-31] | 80
45 | CSC(Oc1nn(-c2ncccc2F)c(-c2ccc(F)nc2)c1Br)C(=O)O (stereo not drawn) [Example I-34] | 80

Test system: Viola tricolor (VIOTR)
Experiment: as above
Assay type: in vivo
Details: Viola tricolor, 504 h, 80 g/ha, read-out: Post-emergence effect against VIOTR
Method: as §1, §2, §3

Row | Compound | pest or weed control at 80 g/ha [%]
46 | COC(=O)C(Oc1nn(-c2ncccc2F)c(-c2ccc(F)nc2)c1C1CC1)SC (stereo not drawn) [Example I-59] | 80

Same assay, conditions: Viola tricolor, 504 h, 320 g/ha, read-out: Post-emergence effect against VIOTR

Row | Compound | pest or weed control at 320 g/ha [%]
47 | CSC(Oc1nn(-c2ncccc2F)c(-c2ccc(F)nc2)c1C1CC1)C(=O)O (stereo not drawn) [Example I-33] | 80
48 | CSC(Oc1nn(-c2ncccc2F)c(-c2ccc(F)nc2)c1Br)C(=O)O (stereo not drawn) [Example I-34] | 90
49 | CSC(Oc1nn(-c2cnccn2)c(-c2ccc(F)nc2)c1Br)C(=O)O (stereo not drawn) [Example I-36] | 80
50 | CSC(Oc1nn(-c2cnccn2)c(-c2ccc(F)nc2)c1Cl)C(=O)O (stereo not drawn) [Example I-37] | 80
51 | COC(=O)C(Oc1nn(-c2ncccc2F)c(-c2ccc(F)nc2)c1C1CC1)SC (stereo not drawn) [Example I-59] | 80
